The subject of assay [1] is free testosterone concentration. As to conditions: after 24 weeks of daily 150 mg CASODEX alone; prostate cancer; cited from earlier work.
The test system of the next assay is total testosterone. As to conditions: bicalutamide single agent therapy, humans; cited from earlier work.
In assay [2] the test system is testosterone, LH, oestradiol, FSH levels. As to conditions: cited from earlier work.

Description for free testosterone levels: The following clinical trial was performed to determine the effect of the administration of CASODEX™ together with ARIMIDEX™ on free testosterone levels in healthy male volunteers over a 6 week period.
Dosage: The CASODEX™ was administered daily at a dose of 150 mg and the ARIMIDEX™ was administered daily at a dose of 1 mg. All treatments were in tablet form and taken once daily. Daily treatment with CASODEX™ was for 6 weeks, and with ARIMIDEX™ for the final 2 weeks of this period. The treatment periods were selected as the minimum time to attain steady-state plasma concentrations for the drugs.
Key Assessment: Free testosterone concentrations were measured during the course of the trial.

For the compound `CC(O)(CS(=O)(=O)c1ccc(F)cc1)C(=O)Nc1ccc(C#N)c(C(F)(F)F)c1` (stereo not drawn) [CASODEX, 4′-cyano-α′,α′, α′-trifluoro-3-(4-fluorophenylsulphonyl)-2-hydroxy-2-methylpropiono-m-toluidide], the “Increase in mean free testosterone concentration” value is recorded as 58% in the assay on free testosterone levels (CASODEX alone, end of the treatment period (4 weeks)) and 57% in assay [1]. Besides, the “Free testosterone, ratio to Day 1” value with free testosterone levels (Day 29, CASODEX 150 mg daily alone) came to 1.58. Moreover, the “Free testosterone concentration, gmean” value with free testosterone levels (Day 29, CASODEX 150 mg daily alone (up to week 4), n=7) is reported as 0.076 nmol/1. Moreover, in the assay with total testosterone, the “Change in basal level of total testosterone” value is listed as “approximate doubling”.
As for `CC/C(=C(\c1ccccc1)c1ccc(OCCN(C)C)cc1)c1ccccc1` [tamoxifen], in assay [2] (13 normal men, 6 week period (Spijkstra et al)), the “Effect on mean serum testosterone, oestradiol, LH levels, LH pulse frequency and amplitude” value is “An increase”. The “Effect on basal serum levels of LH, oestradiol and testosterone” value in assay [2] (administration to men (Lewis-Jones et al)) was “elevates the basal serum levels”. Besides, the “Effect on testosterone and LH” value in assay [2] (intake in adult men (Comhaire et al)) was “increase testosterone and LH”. Also, the “Effect on basal LH, FSH and testosterone levels” value in assay [2] (three months' treatment, normogonadotrophic oligozoospermic men (van Bergeijk et al)) is “stimulated basal LH, FSH and testosterone levels”.

Values taken from patent US20030114519A1, “Pharmaceutical combination of bicalutamide and anastrozole for providing an anti-androgenic effect and aromatase inhibition” (priority 2002, published 2003).
